Experimental data reported in patent publication US20080279819A1, “Combinations Therapy for Treatment of Demyelinating Conditions” (Adamas Pharmaceuticals, Inc., priority 2005, published 2008).

Legend:
[1] = Release profile of memantine and atorvastatin combination (cumulative fraction released); format: physicochemical; settings: released from formulation matrix, USP II Paddle, water
Source text: The cumulative fraction is the amount of drug substance released from the formulation matrix to the serum or gut environment (e.g., U.S. Pat. No. 4,839,177) or as measured with a USP II Paddle system using water as the dissolution medium.

[2] = five doses at about 0.25 to about 1 mg/kg intravenous, 14 day interval; cited from earlier work

Row | Molecule | cum. fraction ([1]; Time 1) | cum. fraction ([1]; Time 2) | cum. fraction ([1]; Time 4) | cum. fraction ([1]; Time 8) | cum. fraction ([1]; Time 12) | cum. fraction ([1]; Time 16) | cum. fraction ([1]; Time 20) | cum. fraction ([1]; Time 24) | Peak serum concentrations [2]
1 | CC(C)c1c(C(=O)Nc2ccccc2)c(-c2ccccc2)c(-c2ccc(F)cc2)n1CC[C@@H](O)C[C@@H](O)CC(=O)O [ATORVASTATIN, atorvastatin] | 0.15 | 0.30 | 0.45 | 0.60 | 0.75 | 0.90 | 0.98 | 0.99 | 
2 | daclizumab: multiple sclerosis agent daclizumab (ZENAPAX), given intravenously |  |  |  |  |  |  |  |  | 21 to 32 µg/mL
